Patent US7919489B2, “Heterocyclyamide-substituted imidazoles” (Aicuris GmbH & Co. KG, priority 2005, dated 2011)
pEC50: −log10 of the molar value.

Tests used:
[1] = system: HCMV; assay: Anti-HCMV cytopathogenicity test (inhibition of CPE); format: cell-based, human cytomegalovirus; settings: for pEC50: Human betaherpesvirus 5, 144 h, concentration inhibiting the CPE by 50% vs untreated virus control, HCMV-infected NHDF cells, 6 days
Description: Anti-HCMV (Anti-Human Cytomegalovirus) Cytopathogenicity Tests The test compounds are employed as 50 millimolar (mM) solutions in dimethyl sulfoxide (DMSO). Ganciclovir, foscarnet and cidofovir are used as reference compounds. After the addition of in each case 2 μl of the 50, 5, 0.5 and 0.05 mM DMSO stock solutions to 98 μl portions of cell culture medium in row […] for duplicate determinations, 1:2 dilutions are carried out with 50 μl portions of medium up to row 11 of the 96-well plate. The wells in rows 1 and 12 each contain 50 μl of medium. Then 150 μl of a suspension of 1×10^4 cells (human prepuce fibroblasts [NHDF]) are pipetted into each of the wells (row 1=cell control) and, in rows 2-12, a mixture of HCMV-infected and uninfected NHDF cells (M.O.I.=0.001-0.002), i.e. 1-2 infected cells per 1000 uninfected cells. Row 12 (without substance) serves as virus control. The final test concentrations are 250-0.0005 μM. The plates are incubated at 37° C./5% CO2 for 6 days, i.e. until all the cells in the virus controls are infected (100% cytopathogenic effect [CPE]). The wells are then fixed and stained by adding a mixture of formalin and Giemsa's dye (30 minutes), washed with double-distilled water and dried in a drying oven at 50° C. The plates are then assessed visually using an overhead microscope (Plaque Multiplier from Technomara). The following data can be acquired from the test plates: EC50 (HCMV)=substance concentration in μM which inhibits the CPE (cytopathic effect) by 50% compared with the untreated virus control; SI (selectivity index)=CC50 (NHDF)/EC50 (HCMV).

[2] = Anti-HCMV cytopathogenicity test: cytostatic effects on NHDF cells; format: cell-based; settings: human, NHDF cells (human prepuce fibroblasts), maximum substance concentration with no visible cytostatic effects vs untreated cell control
Description: Anti-HCMV (Anti-Human Cytomegalovirus) Cytopathogenicity Tests The test compounds are employed as 50 millimolar (mM) solutions in dimethyl sulfoxide (DMSO). Ganciclovir, foscarnet and cidofovir are used as reference compounds. After the addition of in each case 2 μl of the 50, 5, 0.5 and 0.05 mM DMSO stock solutions to 98 μl portions of cell culture medium in row […] for duplicate determinations, 1:2 dilutions are carried out with 50 μl portions of medium up to row 11 of the 96-well plate. The wells in rows 1 and 12 each contain 50 μl of medium. Then 150 μl of a suspension of 1×10^4 cells (human prepuce fibroblasts [NHDF]) are pipetted into each of the wells (row 1=cell control) and, in rows 2-12, a mixture of HCMV-infected and uninfected NHDF cells (M.O.I.=0.001-0.002), i.e. 1-2 infected cells per 1000 uninfected cells. Row 12 (without substance) serves as virus control. The final test concentrations are 250-0.0005 μM. The plates are incubated at 37° C./5% CO2 for 6 days, i.e. until all the cells in the virus controls are infected (100% cytopathogenic effect [CPE]). The wells are then fixed and stained by adding a mixture of formalin and Giemsa's dye (30 minutes), washed with double-distilled water and dried in a drying oven at 50° C. The plates are then assessed visually using an overhead microscope (Plaque Multiplier from Technomara). The following data can be acquired from the test plates: CC50 (NHDF)=maximum substance concentration in μM at which no visible cytostatic effects on the cells are evident by comparison with the untreated cell control;

| Compound | pEC50 [1] | SI HCMV (selectivity index = CC50 (NHDF)/EC50 (HCMV)) [1] | CC50 at 6 days [2] [nM] |
| --- | --- | --- | --- |
| COc1ccc(N2CCN(C(=O)c3nc(NC(=O)Nc4ccc(OC(F)(F)F)cc4)cn3C)CC2)nc1 [Example 29] | 9.02 | 35790 | 34000 |
| Cc1ccc(N2CCN(C(=O)c3nc(NC(=O)Nc4ccc(OC(F)(F)F)cc4)cn3CC3CC3)CC2)nc1 [Example 32] | 9.07 | 6240 | 5300 |
| Cn1cc(NC(=O)Nc2ccc(OC(F)(F)F)cc2)nc1C(=O)N1CCN(c2ccccn2)CC1 [Example 1, N-{1-Methyl-2-[(4-pyridin-2-ylpiperazin-1-yl)carbonyl]-1H-imidazol-4-yl}-N′-[4-(trifluoromethoxy)phenyl]urea] | 8.52 | 14500 | 43500 |

Second part, led by results:

| pEC50 [1] | Compound | SI HCMV (selectivity index = CC50 (NHDF)/EC50 (HCMV)) [1] | CC50 at 6 days [2] [nM] |
| --- | --- | --- | --- |
| 9.12 | Cc1ccc(N2CCN(C(=O)c3nc(NC(=O)Nc4ccc(OC(F)(F)F)cc4)cn3C)CC2)nc1 [Example 2, N-(1-Methyl-2-{[4-(5-methylpyridin-2-yl)piperazin-1-yl]carbonyl}-1H-imidazol-4-yl)-N′-[4-(trifluoromethoxy)phenyl]urea] | 14530 | 10900 |
| 8.32 | Cn1cc(NC(=O)Nc2ccc(OC(F)(F)F)cc2)nc1C(=O)N1CCN(c2ccc(C#N)cn2)CC1 [Example 25] | 2600 | 12500 |
